Experimental data as given in patent US20230278972A1, “SUBSTITUTED HALOALKYL SULFONANILIDE HERBICIDES” (FMC Corporation, priority 2020, published 2023).

What was measured:
Assay type in all cases: in vivo
kochia (Bassia scoparia) [1] = experiment: Test A preemergence, kochia; conditions: Preemergence; for Plant response rating, Kochia: 0 to 100 scale (0 no effect, 100 complete control); for Kochia plant response rating: visual injury on 0 to 100 scale (0 no effect, 100 complete control), approximately 10 days
How it was run: (§1)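 Test chemicals, formulated in a non-phytotoxic solvent mixture with surfactant, were sprayed postemergence on plants 2 to 10 cm tall at the one- to two-leaf stage. Preemergence treatment was a directed soil spray onto freshly seeded pots. Both used a loam soil and sand blend.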

[2] = tested on: barnyardgrass (Echinochloa crus-galli); experiment: Test A postemergence, barnyardgrass; conditions: Postemergence, 0 to 100 scale (0 no effect, 100 complete control); for Plant response rating, Barnyardgrass: 125 g ai/ha; for Barnyardgrass plant response rating: 500 g ai/ha, visual injury vs untreated controls after approx. 10 days
How it was run: (§2)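 Greenhouse pot test in a loam–sand blend; compounds delivered in a non-phytotoxic solvent carrying a surfactant, applied either as a directed spray to soil at seeding or over seedlings 2 to 10 cm high with one to two leaves.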

[3] = tested on: wheat (Triticum aestivum); experiment: Test A postemergence, wheat; conditions: Postemergence, 0 to 100 scale (0 no effect, 100 complete control); for Plant response rating, Wheat: 125 g ai/ha; for Wheat plant response rating: 500 g ai/ha, visual injury vs untreated controls after approx. 10 days
How it was run: as §2

[4] = tested on: ragweed (common ragweed, Ambrosia artemisiifolia); experiment: Test A preemergence, ragweed; conditions: Preemergence; for Plant response rating, Ragweed: 0 to 100 scale (0 no effect, 100 complete control); for Ragweed plant response rating: visual injury on 0 to 100 scale (0 no effect, 100 complete control), approximately 10 days
How it was run: as §1

[5] = tested on: ragweed (common ragweed, Ambrosia artemisiifolia); experiment: Test A postemergence, ragweed; conditions: Postemergence, 0 to 100 scale (0 no effect, 100 complete control); for Plant response rating, Ragweed: 125 g ai/ha; for Ragweed plant response rating: 500 g ai/ha, visual injury vs untreated controls after approx. 10 days
How it was run: as §1

[6] = tested on: galium (catchweed bedstraw, Galium aparine); experiment: Test A postemergence, galium; conditions: Postemergence, 0 to 100 scale (0 no effect, 100 complete control); for Plant response rating, Galium: 125 g ai/ha; for Galium plant response rating: 500 g ai/ha, visual injury vs untreated controls after approx. 10 days
How it was run: as §2

[7] = tested on: Foxtail, Giant (giant foxtail, Setaria faberi); experiment: Test A preemergence, Foxtail, Giant; conditions: Preemergence; for Plant response rating, Foxtail, Giant: 0 to 100 scale (0 no effect, 100 complete control); for Foxtail, Giant plant response rating: visual injury on 0 to 100 scale (0 no effect, 100 complete control), approximately 10 days
How it was run: as §1

[8] = tested on: barnyardgrass (Echinochloa crus-galli); experiment: Test A preemergence, barnyardgrass; conditions: Preemergence, 0 to 100 scale (0 no effect, 100 complete control)
How it was run: as §1

[9] = tested on: Ryegrass, Italian (Italian ryegrass, Lolium multiflorum); experiment: Test A postemergence, Ryegrass, Italian; conditions: Postemergence, 0 to 100 scale (0 no effect, 100 complete control); for Plant response rating, Ryegrass, Italian: 125 g ai/ha; for Ryegrass, Italian plant response rating: 500 g ai/ha, visual injury vs untreated controls after approx. 10 days
How it was run: as §1

corn (Zea mays) = experiment: Test A postemergence, corn; conditions: Postemergence, 0 to 100 scale (0 no effect, 100 complete control); for Plant response rating, Corn: 125 g ai/ha; for Corn plant response rating: 500 g ai/ha, visual injury vs untreated controls after approx. 10 days
How it was run: as §1

kochia (Bassia scoparia) [10] = experiment: Test A postemergence, kochia; conditions: Postemergence, 0 to 100 scale (0 no effect, 100 complete control); for Plant response rating, Kochia: 125 g ai/ha; for Kochia plant response rating: 500 g ai/ha, visual injury vs untreated controls after approx. 10 days
How it was run: as §1

[11] = tested on: Foxtail, Giant (giant foxtail, Setaria faberi); experiment: Test A postemergence, Foxtail, Giant; conditions: Postemergence, 0 to 100 scale (0 no effect, 100 complete control); for Plant response rating, Foxtail, Giant: 125 g ai/ha; for Foxtail, Giant plant response rating: 500 g ai/ha, visual injury vs untreated controls after approx. 10 days
How it was run: as §1

[12] = tested on: pigweed (Amaranthus retroflexus); experiment: Test A postemergence, pigweed; conditions: Postemergence, 0 to 100 scale (0 no effect, 100 complete control); for Plant response rating, Pigweed: 125 g ai/ha; for Pigweed plant response rating: 500 g ai/ha, visual injury vs untreated controls after approx. 10 days
How it was run: as §1

[13] = tested on: pigweed (Amaranthus retroflexus); experiment: Test A preemergence, pigweed; conditions: for Plant response rating, Pigweed: 0 to 100 scale (0 no effect, 100 complete control); for Pigweed plant response rating: visual injury on 0 to 100 scale (0 no effect, 100 complete control), approximately 10 days
How it was run: as §2

[14] = tested on: Ryegrass, Italian (Italian ryegrass, Lolium multiflorum); experiment: Test A preemergence, Ryegrass, Italian; conditions: Preemergence; for Plant response rating, Ryegrass, Italian: 0 to 100 scale (0 no effect, 100 complete control); for Ryegrass, Italian plant response rating: visual injury on 0 to 100 scale (0 no effect, 100 complete control), approximately 10 days
How it was run: as §1

[15] = tested on: blackgrass (Alopecurus myosuroides); experiment: Test A postemergence, blackgrass; conditions: Postemergence, 0 to 100 scale (0 no effect, 100 complete control); for Plant response rating, Blackgrass: 125 g ai/ha; for Blackgrass plant response rating: 500 g ai/ha, visual injury vs untreated controls after approx. 10 days
How it was run: as §1

[16] = 125 g ai/ha, visual injury, approx. 10 days

Row | SMILES | Plant response rating, Kochia (kochia (Bassia scoparia) [1]; [16]) | Plant response rating, Barnyardgrass [2] | Barnyardgrass plant response rating [2] | Plant response rating, Wheat [3] | Wheat plant response rating [3] | Plant response rating, Ragweed [4, 16] | Plant response rating, Ragweed [5] | Ragweed plant response rating [5] | Plant response rating, Galium [6] | Galium plant response rating [6] | Plant response rating, Foxtail, Giant [7, 16] | Plant response rating, Barnyardgrass [8, 16] | Plant response rating, Barnyardgrass ([8]; 500 g ai/ha) | Plant response rating, Ryegrass, Italian [9] | Ryegrass, Italian plant response rating [9] | Plant response rating, Corn (corn (Zea mays)) | Corn plant response rating (corn (Zea mays)) | Plant response rating, Kochia (kochia (Bassia scoparia) [10]) | Kochia plant response rating (kochia (Bassia scoparia) [10]) | Plant response rating, Foxtail, Giant [11] | also measured
1 | Cc1cc(C)c(C(=O)N2CCC3(CCCC3)C2)cc1NS(=O)(=O)C(F)(F)F [Compound 225] | 0 | 0 | 10 | 0 | 0 | 30 | 20 | 40 | 50 | 80 | 90 | 70 | 90 | 60 | 40 | 0 | 0 | 0 | 10 | 0 | Plant response rating, Kochia (kochia (Bassia scoparia) [1]; 500 g ai/ha): 40; Plant response rating, Ragweed ([4]; 500 g ai/ha): 90; Plant response rating, Foxtail, Giant ([7]; 500 g ai/ha): 100; Foxtail, Giant plant response rating [11]: 0; Plant response rating, Pigweed [12]: 90; Pigweed plant response rating [12]: 30; Plant response rating, Pigweed [13, 16]: 70; Plant response rating, Pigweed ([13]; 500 g ai/ha): 100; Plant response rating, Ryegrass, Italian [14, 16]: 70; Plant response rating, Ryegrass, Italian ([14]; 500 g ai/ha): 100; Plant response rating, Blackgrass [15]: 0; Blackgrass plant response rating [15]: 20
2 | Cc1cc(C)c(C(=O)N2CCC(S(C)(=O)=O)CC2)cc1NS(=O)(=O)C(F)(F)F [Compound 233] | 0 | 0 | 0 | 0 | 40 | 0 | 0 | 0 | 80 | 90 | 40 | 0 | 30 | 0 | 0 | 0 | 0 | 0 | 30 | 0 | Kochia plant response rating (kochia (Bassia scoparia) [1]; 500 g ai/ha): 80; Ragweed plant response rating ([4]; 500 g ai/ha): 30; Foxtail, Giant plant response rating ([7]; 500 g ai/ha): 100; Foxtail, Giant plant response rating [11]: 0; Plant response rating, Pigweed [12]: 30; Pigweed plant response rating [12]: 60; Plant response rating, Pigweed [13, 16]: 60; Pigweed plant response rating ([13]; 500 g ai/ha): 90; Plant response rating, Ryegrass, Italian [14, 16]: 20; Ryegrass, Italian plant response rating ([14]; 500 g ai/ha): 70; Plant response rating, Blackgrass [15]: 0; Blackgrass plant response rating [15]: 40
3 | Cc1cc(C)c(C(=O)N2CCC(CC(F)(F)F)CC2)cc1NS(=O)(=O)C(F)(F)F [Compound 234] | 0 | 60 | 70 | 0 | 0 | 80 | 30 | 50 | 10 | 80 | 50 | 80 | 80 | 0 | 0 | 0 | 0 | 0 | 0 | 0 | Kochia plant response rating (kochia (Bassia scoparia) [1]; 500 g ai/ha): 30; Ragweed plant response rating ([4]; 500 g ai/ha): 90; Foxtail, Giant plant response rating ([7]; 500 g ai/ha): 50; Foxtail, Giant plant response rating [11]: 50; Plant response rating, Pigweed [12]: 30; Pigweed plant response rating [12]: 60; Plant response rating, Pigweed [13, 16]: 50; Pigweed plant response rating ([13]; 500 g ai/ha): 100; Plant response rating, Ryegrass, Italian [14, 16]: 20; Ryegrass, Italian plant response rating ([14]; 500 g ai/ha): 50; Plant response rating, Blackgrass [15]: 0; Blackgrass plant response rating [15]: 0
4 | Cc1cc(F)c(C(=O)N2CC(C)OC(C)C2)cc1N(S(=O)(=O)C(F)(F)F)S(=O)(=O)C(F)(F)F (stereo not shown) [Compound 235] | 30 | 0 | 60 | 20 | 60 | 40 | 60 | 90 | 70 | 70 | 10 | 0 | 0 | 30 | 60 | 0 | 30 | 10 | 30 | 20 | Kochia plant response rating (kochia (Bassia scoparia) [1]; 500 g ai/ha): 50; Ragweed plant response rating ([4]; 500 g ai/ha): 80; Foxtail, Giant plant response rating ([7]; 500 g ai/ha): 10; Foxtail, Giant plant response rating [11]: 30; Plant response rating, Pigweed [12]: 30; Pigweed plant response rating [12]: 30; Plant response rating, Pigweed [13, 16]: 30; Pigweed plant response rating ([13]; 500 g ai/ha): 80; Plant response rating, Ryegrass, Italian [14, 16]: 50; Ryegrass, Italian plant response rating ([14]; 500 g ai/ha): 90; Plant response rating, Blackgrass [15]: 0; Blackgrass plant response rating [15]: 20
5 | Cc1cc(F)c(C(=O)N2CCC(C#N)CC2)cc1NS(=O)(=O)C(F)(F)F [Compound 236] | 20 | 50 | 60 | 0 | 0 | 50 | 40 | 80 | 40 | 70 | 30 | 0 | 0 | 30 | 60 | 0 | 20 | 30 | 50 | 20 | Kochia plant response rating (kochia (Bassia scoparia) [1]; 500 g ai/ha): 70; Ragweed plant response rating ([4]; 500 g ai/ha): 80; Foxtail, Giant plant response rating ([7]; 500 g ai/ha): 60; Foxtail, Giant plant response rating [11]: 80; Plant response rating, Pigweed [12]: 40; Pigweed plant response rating [12]: 60; Plant response rating, Pigweed [13, 16]: 60; Pigweed plant response rating ([13]; 500 g ai/ha): 90; Plant response rating, Ryegrass, Italian [14, 16]: 20; Ryegrass, Italian plant response rating ([14]; 500 g ai/ha): 60; Plant response rating, Blackgrass [15]: 0; Blackgrass plant response rating [15]: 20
